Data as given in patent publication US20260207585A1, “METHODS AND COMPOSITIONS FOR THE TREATMENT OF PARKINSON'S DISEASE, HUNTINGTON'S DISEASE, AMYOTROPHIC LATERAL SCLEROSIS, AND LEARNING DISORDERS” (Cedars-Sinai Medical Center, priority 2022, published 2026).
Where two headings read alike, the source gives them in different places.

Tests used:
DNMT3b = DNMT3b (Homo sapiens, UniProt Q9UBC3); assay: Methyltransferase inhibition panel: DNMT3b; type: biochemical
Procedure: (§1) The ability of ETP69 to inhibit methyltransferases was tested.

EZH2(Y641F) Complex = EZH2(Y641F) Complex (Homo sapiens, UniProt Q15910, Y641F); assay: Methyltransferase inhibition panel: EZH2(Y641F) Complex; type: biochemical; settings: NT1721 20 μM; substrate Core Histone 0.05 mg/mL
Procedure: as §1

MLL1 Complex = MLL1 Complex (Homo sapiens, UniProt Q03164); assay: Methyltransferase inhibition panel: MLL1 Complex; type: biochemical
Chain of MLL1 Complex (Q03164 3745-3969): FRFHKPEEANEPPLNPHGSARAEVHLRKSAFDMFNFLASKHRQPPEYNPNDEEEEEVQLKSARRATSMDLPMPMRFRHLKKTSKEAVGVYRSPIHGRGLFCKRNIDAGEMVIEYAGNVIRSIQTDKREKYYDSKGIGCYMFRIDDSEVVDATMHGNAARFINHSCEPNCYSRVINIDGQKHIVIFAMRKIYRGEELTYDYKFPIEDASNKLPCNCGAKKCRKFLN
Chain of MLL1 Complex (Q9UBL3 96-628, further chain): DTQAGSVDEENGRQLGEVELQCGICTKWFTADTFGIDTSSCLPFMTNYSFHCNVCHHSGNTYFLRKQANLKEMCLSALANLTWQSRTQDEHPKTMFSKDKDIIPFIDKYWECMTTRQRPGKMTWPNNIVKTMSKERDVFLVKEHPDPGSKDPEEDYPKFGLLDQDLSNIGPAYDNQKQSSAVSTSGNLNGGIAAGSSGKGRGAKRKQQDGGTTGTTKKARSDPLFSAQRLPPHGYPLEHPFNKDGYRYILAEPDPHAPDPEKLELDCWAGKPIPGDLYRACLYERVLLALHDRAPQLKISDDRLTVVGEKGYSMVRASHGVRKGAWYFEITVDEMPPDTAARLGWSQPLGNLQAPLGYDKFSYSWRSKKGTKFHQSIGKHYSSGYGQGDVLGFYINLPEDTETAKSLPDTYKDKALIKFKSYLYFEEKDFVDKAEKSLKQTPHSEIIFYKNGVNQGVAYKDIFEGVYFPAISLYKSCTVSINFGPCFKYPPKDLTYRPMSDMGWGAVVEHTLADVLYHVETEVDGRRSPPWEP
Chain of MLL1 Complex (Q9C005 whole entry, further chain): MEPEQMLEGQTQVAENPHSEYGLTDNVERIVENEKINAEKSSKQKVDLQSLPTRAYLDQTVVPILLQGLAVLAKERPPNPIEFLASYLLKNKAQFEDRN
Chain of MLL1 Complex (Q15291 whole entry, further chain): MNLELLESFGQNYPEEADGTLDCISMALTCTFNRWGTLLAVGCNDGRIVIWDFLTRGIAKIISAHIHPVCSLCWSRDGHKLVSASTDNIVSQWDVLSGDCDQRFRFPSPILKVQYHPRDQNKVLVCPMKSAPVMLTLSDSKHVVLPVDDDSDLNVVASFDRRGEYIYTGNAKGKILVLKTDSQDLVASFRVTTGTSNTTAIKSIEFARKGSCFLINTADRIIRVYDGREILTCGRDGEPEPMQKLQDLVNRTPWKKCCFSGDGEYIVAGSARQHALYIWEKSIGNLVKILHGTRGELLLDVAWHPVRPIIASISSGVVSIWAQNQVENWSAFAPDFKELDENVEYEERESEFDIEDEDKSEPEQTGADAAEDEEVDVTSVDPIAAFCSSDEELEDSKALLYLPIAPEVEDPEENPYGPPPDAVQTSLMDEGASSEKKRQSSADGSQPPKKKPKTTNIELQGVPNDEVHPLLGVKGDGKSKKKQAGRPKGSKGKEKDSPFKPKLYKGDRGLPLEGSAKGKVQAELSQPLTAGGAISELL
Procedure: as §1

NSD1 = NSD1 (Homo sapiens, UniProt Q96L73); assay: Methyltransferase inhibition panel: NSD1; type: biochemical
Chain of NSD1 (Q96L73 whole entry): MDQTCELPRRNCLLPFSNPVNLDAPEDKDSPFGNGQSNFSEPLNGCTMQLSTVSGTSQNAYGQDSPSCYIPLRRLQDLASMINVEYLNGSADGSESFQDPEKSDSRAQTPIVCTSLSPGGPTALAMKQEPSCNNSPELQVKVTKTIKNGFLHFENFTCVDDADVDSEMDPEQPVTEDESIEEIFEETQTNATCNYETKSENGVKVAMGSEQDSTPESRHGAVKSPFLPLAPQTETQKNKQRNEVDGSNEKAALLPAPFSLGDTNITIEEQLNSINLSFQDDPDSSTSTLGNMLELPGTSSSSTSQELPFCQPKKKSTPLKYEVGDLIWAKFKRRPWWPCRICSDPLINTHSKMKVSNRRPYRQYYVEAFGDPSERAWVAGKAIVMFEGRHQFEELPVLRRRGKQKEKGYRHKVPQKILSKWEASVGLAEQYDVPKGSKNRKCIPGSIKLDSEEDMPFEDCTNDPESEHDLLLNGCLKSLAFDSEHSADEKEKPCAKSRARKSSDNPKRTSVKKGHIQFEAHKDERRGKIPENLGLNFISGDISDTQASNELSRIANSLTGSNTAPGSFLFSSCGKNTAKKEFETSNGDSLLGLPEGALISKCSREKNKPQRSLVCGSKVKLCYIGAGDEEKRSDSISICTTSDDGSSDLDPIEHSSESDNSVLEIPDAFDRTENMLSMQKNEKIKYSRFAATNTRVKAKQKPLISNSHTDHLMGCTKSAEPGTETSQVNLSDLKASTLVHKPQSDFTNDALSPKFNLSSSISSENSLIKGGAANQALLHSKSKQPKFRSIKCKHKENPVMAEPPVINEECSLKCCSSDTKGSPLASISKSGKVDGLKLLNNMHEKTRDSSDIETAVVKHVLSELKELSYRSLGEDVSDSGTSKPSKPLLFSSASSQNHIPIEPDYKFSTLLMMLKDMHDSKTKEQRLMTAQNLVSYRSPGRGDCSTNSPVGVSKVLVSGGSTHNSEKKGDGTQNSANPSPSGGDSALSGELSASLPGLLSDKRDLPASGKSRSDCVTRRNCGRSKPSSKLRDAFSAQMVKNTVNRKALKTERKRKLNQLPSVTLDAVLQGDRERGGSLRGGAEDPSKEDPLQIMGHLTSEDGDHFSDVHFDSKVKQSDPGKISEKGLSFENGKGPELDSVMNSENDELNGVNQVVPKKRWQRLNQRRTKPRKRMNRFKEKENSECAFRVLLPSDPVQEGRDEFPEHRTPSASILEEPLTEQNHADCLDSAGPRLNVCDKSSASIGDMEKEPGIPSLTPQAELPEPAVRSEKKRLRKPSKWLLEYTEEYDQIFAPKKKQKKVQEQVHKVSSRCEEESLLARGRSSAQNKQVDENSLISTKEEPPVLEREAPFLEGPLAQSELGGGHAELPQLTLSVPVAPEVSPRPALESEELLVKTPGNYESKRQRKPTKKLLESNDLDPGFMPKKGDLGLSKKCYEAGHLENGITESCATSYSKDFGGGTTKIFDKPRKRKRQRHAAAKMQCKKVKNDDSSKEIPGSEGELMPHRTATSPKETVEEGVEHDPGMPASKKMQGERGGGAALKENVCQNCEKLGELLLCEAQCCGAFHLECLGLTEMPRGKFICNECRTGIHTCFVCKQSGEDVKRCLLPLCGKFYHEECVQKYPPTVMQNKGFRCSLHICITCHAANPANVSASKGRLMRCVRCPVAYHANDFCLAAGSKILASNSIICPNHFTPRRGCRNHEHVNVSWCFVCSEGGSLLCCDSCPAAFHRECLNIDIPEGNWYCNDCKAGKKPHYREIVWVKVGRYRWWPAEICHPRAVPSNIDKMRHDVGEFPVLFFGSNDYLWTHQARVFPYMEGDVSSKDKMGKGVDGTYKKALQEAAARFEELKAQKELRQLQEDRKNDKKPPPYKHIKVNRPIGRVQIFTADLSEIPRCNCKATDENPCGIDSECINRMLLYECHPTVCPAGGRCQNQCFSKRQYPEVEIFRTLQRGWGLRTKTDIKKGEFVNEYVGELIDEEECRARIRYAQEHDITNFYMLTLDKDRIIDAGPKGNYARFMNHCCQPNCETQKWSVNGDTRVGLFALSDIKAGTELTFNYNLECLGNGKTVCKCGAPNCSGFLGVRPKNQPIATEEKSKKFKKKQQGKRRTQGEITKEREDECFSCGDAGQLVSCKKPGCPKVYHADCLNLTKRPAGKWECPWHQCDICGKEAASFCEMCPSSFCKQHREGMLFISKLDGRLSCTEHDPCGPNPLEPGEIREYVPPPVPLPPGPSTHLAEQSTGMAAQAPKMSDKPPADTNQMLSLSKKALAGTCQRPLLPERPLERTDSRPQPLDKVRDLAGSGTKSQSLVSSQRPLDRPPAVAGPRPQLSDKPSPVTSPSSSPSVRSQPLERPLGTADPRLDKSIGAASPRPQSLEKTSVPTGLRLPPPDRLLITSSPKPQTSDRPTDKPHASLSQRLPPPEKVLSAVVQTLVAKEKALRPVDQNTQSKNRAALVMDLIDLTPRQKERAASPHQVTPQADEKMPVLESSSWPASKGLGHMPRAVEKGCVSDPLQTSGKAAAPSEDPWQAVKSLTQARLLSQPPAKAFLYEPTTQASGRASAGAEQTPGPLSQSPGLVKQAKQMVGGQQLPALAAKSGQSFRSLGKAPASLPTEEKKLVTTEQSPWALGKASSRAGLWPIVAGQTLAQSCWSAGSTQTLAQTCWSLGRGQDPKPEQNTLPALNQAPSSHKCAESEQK
Procedure: as §1

PRMT1 = PRMT1 (Homo sapiens, UniProt Q99873); assay: Methyltransferase inhibition panel: PRMT1; type: biochemical
Chain of PRMT1 (Q99873 whole entry): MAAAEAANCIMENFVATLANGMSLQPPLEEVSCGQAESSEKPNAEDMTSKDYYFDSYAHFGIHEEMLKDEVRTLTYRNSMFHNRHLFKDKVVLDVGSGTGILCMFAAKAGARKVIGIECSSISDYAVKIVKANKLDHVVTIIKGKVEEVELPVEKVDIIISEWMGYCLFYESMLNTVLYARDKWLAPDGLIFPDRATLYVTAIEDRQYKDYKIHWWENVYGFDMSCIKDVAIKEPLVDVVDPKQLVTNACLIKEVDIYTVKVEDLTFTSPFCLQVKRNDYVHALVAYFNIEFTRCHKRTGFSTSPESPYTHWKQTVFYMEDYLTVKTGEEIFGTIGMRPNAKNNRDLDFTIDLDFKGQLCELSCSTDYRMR
Procedure: as §1

SET1b Complex = SET1b Complex (Homo sapiens, UniProt Q9UPS6); assay: Methyltransferase inhibition panel: SET1b Complex; type: biochemical
Procedure: as §1

SMYD3 = target: T1, SMYD3 (Homo sapiens, UniProt Q9H7B4); assay: Methyltransferase inhibition panel: SMYD3; type: biochemical
T1 sequence (Q9H7B4 1-428): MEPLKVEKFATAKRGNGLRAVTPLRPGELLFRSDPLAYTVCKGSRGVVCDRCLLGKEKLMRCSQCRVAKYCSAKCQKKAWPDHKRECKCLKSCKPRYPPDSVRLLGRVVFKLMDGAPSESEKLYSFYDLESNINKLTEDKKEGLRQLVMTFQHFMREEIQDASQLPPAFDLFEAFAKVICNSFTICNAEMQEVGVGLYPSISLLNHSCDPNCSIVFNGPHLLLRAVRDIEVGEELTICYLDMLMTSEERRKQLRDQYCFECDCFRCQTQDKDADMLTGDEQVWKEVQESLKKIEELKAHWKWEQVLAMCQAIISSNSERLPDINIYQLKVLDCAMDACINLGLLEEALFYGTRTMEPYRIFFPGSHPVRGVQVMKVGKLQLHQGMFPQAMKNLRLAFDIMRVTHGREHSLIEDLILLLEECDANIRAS
Procedure: as §1

H3K9me3 = H3K9me3 staining in cingulate/cerebral cortex and hippocampus; type: in vivo, mice; set-up: reduction of H3K9me3 IR area / reduction of hippocampal H3K9me3 levels: concentration or dose not given beside the values; settings: for reduction of hippocampal H3K9me3 levels: 15 days after injection; for decrease in neuronal H3K9me3 irradiance: cingulate cortex; for reduction of H3K9me3 IR area: cortex
Procedure: The experimental protocol is depicted in FIG. 2A. Mice were treated with ETP69 or DMSO. After 2 days, they were tested on the color X-maze. At day 12, they were tested on the Barnes maze. On day 14, they were tested for fear conditioning. Brain tissue was isolated as depicted for analysis of H3K9me3 staining on days 4 and 15, as depicted in FIG. 2B-2D. Levels of H3K9me3 correlated with the percent of alterations at day 4 as depicted in FIG. 2E. At day 15, H3K9me3 was decreased in mice treated with ETP69 as compared to mice treated with DMSO. Levels of H3K9me3 was decreased in both the cingulate cortex and the hippocampus at 4 and 15 days (FIGS. 2J-2M).
The effects of single and repeated ETP69 injections in mice were tested. The experimental timeline is depicted in FIG. 5. Three parallel injection conditions were tested: a single ETP69 condition, a boosted ETP69 injection, and repeated ETP69 injections. The single injection mice received one injection of ETP69 or DMSO at Day 0. The mice that received a boosted injection received one injection of ETP69 or DMSO at day 0 and one injection at day 9. The mice that received repeated injections received 11 injections of ETP69 or DMSO at day 0 or day 9. Both wildtype and AD model (APP/PS1-transgenic) mice were tested.
AD+ brains were stained for neuronal H3K9me3 and DAPI. Representative images of the cingulate cortex and hippocampus of DMSO and ETP69 treated mice are depicted in FIGS. 8A and 8C, respectively. Neuronal H3K9me3 irradiance in the cingulate cortex is quantified in FIG. 8B. […] H3K9me3 staining in the DG correlated with performance in the Barnes Test, while K3K9me3 staining in the hippocampus was correlated with performance in the fear conditioning test.
(§2) The effects of ETP69 on cerebral H3K9me3 levels was tested in old mice, in both a neurodegenerative model and WT siblings. The levels of brain H3K9me3 at days 4 (short-term) and 15 (long-term) following i.p. ETP69 injection (S regimen cohorts) were measured. […] These findings indicate that a single dose of ETP69 is sufficient to sustainably reduce H3K9me3 in the brains of old WT and neurodegenerative mice. Consistent with the observations in 18-month-old mice, ETP69 mitigated neuroinflammation, including by reduced ionized calcium-binding adaptor molecule 1 (Iba-1)^+ microgliosis in neurodegenerative mice (40%, p=0.0021; FIG. 16D).

GFAP = GFAP staining of brain sections; type: in vivo; settings: AD+ mice; 4 and 15 days
Excerpt: ETP69 administration reduced AD-related brain pathology (FIGS. 9A-9C). Brain sections were stained for H3K9me3, 6E10 and GFAP.

[1] = test system: ionized calcium-binding adaptor molecule 1 (Iba-1); assay: Iba-1 immunoreactivity (microgliosis) in cerebral cortex; type: in vivo; settings: neurodegenerative mice
Procedure: as §2

Delivery to the brain = settings: in vivo
[2] = read-out: Enzyme % Activity (relative to DMSO controls) Data 1
[3] = read-out: Enzyme % Activity (relative to DMSO controls) Data 2
[4] = NT1721 20 μM, substrate Nucleosomes 0.05 mg/mL

Structure (SMILES): CN1C(=O)[C@@]23C[C@](C)(C#N)[C@H](c4ccc5c(c4)OCO5)N2C(=O)[C@]1(C)SS3 (racemic) [ETP69, Rac-(3S,6S,7S,8aS)-6-(benzo[d][1,3]dioxol-5-yl)-2,3,7-trimethyl-1,4-dioxohexahydro-6H-3,8a-epidithiopyrrolo[1,2-a]pyrazine-7-carbonitrile]
- remaining activity at 20 µM (DNMT3b; [2]): 84.8%
- remaining activity at 20 µM (DNMT3b; [3]): 80.9%
- Enzyme % Activity (relative to DMSO controls) Data 1 (EZH2(Y641F) Complex): 102.54%
- Enzyme % Activity (relative to DMSO controls) Data 2 (EZH2(Y641F) Complex): 102.95%
- Enzyme % Activity (relative to DMSO controls) Data 1 (MLL1 Complex; [4]): 5.08%
- Enzyme % Activity (relative to DMSO controls) Data 2 (MLL1 Complex; [4]): 5.33%
- inhibition relative to DMSO controls (MLL1 Complex; summary of Table 1): at least 7500
- Enzyme % Activity (relative to DMSO controls) Data 1 (NSD1; [4]): 34.29%
- Enzyme % Activity (relative to DMSO controls) Data 2 (NSD1; [4]): 36.14%
- inhibition relative to DMSO controls (NSD1; summary of Table 1): at least 7500
- remaining activity at 20 µM (PRMT1; [2]): 114%
- remaining activity at 20 µM (PRMT1; [3]): 115%
- remaining activity at 20 µM (SET1b Complex; [2]): 0.6%
- remaining activity at 20 µM (SET1b Complex; [3]): 0.47%
- inhibition relative to DMSO controls (SET1b Complex; summary of Table 1): at least 7500
- remaining activity at 20 µM (SMYD3; [2]): 8.99%
- remaining activity at 20 µM (SMYD3; [3]): 7.71%
- inhibition relative to DMSO controls (SMYD3; summary of Table 1): at least 7500
- reduction of hippocampal H3K9me3 levels (H3K9me3; CA, WT mice): 36%
- reduction of hippocampal H3K9me3 levels (H3K9me3; CA, neurodegenerative mice): 54%
- reduction of hippocampal H3K9me3 levels (H3K9me3; DG, neurodegenerative mice): 42%
- Levels of H3K9me3 (H3K9me3; cingulate cortex and hippocampus, 4 and 15 days): decreased
- decrease in neuronal H3K9me3 irradiance (H3K9me3; AD+ mice, day 4): 40%
- decrease in neuronal H3K9me3 irradiance (H3K9me3; AD+ mice, day 14): 40%
- decrease in neuronal H3K9me3 irradiance (H3K9me3; wildtype mice, day 4): 27%
- reduction of H3K9me3 IR area (H3K9me3; WT old mice, 4 days after single i.p. injection): 27%
- reduction of H3K9me3 IR area (H3K9me3; neurodegenerative mice, after 15 days): 40%
- reduction of H3K9me3 IR area (H3K9me3; neurodegenerative old mice, 4 days after single i.p. injection): 40%
- H3K9me3 (H3K9me3; day 15, vs mice treated with DMSO): decreased
- decrease in H3K9me3 irradiance (H3K9me3; hippocampus, AD+ mice, vs AD+ mice administered DMSO): 47%
- H3K9 expression (H3K9me3 repression mark), cell-specific (H3K9me3; neurons, astrocytes, and microglia macrophages, AD+ mice): reduced
- GFAP (GFAP): significant decrease
- reduction of Iba-1+ microgliosis [1]: 40%
- delivery to the brain (Delivery to the brain): good delivery to the brain
